Test results: patent US11725037B2, “Peptide dual agonists of GIPR and GLP2R” (University of Copenhagen, priority 2017, dated 2023)
Read-outs that look alike come from different tables or passages of the source. Ends that are not written are not given here.

Legend:
human GIP receptor = molecular target: T1, human GIP receptor (Homo sapiens, UniProt P48546); test: cAMP accumulation assay (HitHunter cAMP XS) in transiently transfected COS-7 cells expressing the human GIP receptor; format: cell-based; details: for Emax at 10 µM: COS-7, read-out: Emax (10 μM), GIP receptor; for fold (fold change of native GIP), GIP receptor: EC50 relative to native GIP
T1 construct: host or cells: COS-7 (transient, calcium phosphate; pCMV-Script vector)
T1 sequence (P48546 22-466): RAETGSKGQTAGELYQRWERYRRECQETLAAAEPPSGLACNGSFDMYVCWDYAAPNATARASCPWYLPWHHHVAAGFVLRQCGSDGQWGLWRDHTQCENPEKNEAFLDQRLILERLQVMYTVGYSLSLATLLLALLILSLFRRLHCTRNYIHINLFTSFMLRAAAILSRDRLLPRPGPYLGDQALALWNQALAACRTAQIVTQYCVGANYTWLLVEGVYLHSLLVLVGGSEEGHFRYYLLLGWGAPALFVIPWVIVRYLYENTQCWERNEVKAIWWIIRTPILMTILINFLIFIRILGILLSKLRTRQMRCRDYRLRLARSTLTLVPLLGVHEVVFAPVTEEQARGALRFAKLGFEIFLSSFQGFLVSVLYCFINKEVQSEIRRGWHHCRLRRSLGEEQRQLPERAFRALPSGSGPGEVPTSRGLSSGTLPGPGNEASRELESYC
Protocol: (§1) The day after, the cells were washed twice with Hepes buffered saline (HBS) buffer and incubated with HBS and 1 mM 3-isobutyl-1-methylxanthine (IBMX) for 30 min at 37° C. Ligands were added and incubated for 30 min at 37° C. The HitHunter™ cAMP XS assay (DiscoveRx) was carried out according to the manufacturer's instructions.

human GLP-2 receptor = molecular target: T2, human GLP-2 receptor (Homo sapiens, UniProt O95838); test: cAMP accumulation assay (HitHunter cAMP XS) in transiently transfected COS-7 cells expressing the human GLP-2 receptor; format: cell-based; details: for Emax at 10 µM: COS-7, read-out: Emax (10 μM), GLP-2 receptor; for EC50: cAMP, COS-7; for fold (fold change of native GLP-2), GLP-2 receptor: EC50 relative to native GLP-2
T2 construct: host or cells: COS-7 (transient, calcium phosphate; pCMV-Script vector)
T2 sequence (O95838 1-553): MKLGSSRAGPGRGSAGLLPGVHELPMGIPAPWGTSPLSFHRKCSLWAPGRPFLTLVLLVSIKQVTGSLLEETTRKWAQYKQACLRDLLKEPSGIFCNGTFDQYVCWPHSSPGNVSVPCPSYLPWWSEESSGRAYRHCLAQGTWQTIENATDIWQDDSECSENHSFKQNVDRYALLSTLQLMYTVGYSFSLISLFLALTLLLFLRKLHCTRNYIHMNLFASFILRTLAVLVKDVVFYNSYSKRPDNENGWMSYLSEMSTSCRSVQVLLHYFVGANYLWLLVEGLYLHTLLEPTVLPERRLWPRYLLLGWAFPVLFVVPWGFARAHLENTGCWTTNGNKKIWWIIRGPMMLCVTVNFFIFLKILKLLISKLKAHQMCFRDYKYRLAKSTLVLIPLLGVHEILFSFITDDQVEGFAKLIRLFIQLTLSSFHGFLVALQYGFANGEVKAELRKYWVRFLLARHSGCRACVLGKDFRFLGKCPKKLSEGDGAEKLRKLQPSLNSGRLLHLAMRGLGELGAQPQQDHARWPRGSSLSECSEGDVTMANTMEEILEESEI
Protocol: as §1

[1] = logEC50, GIP receptor, Table 2, log value, cAMP, COS-7
[2] = logEC50, GLP-2 receptor, Table 2
[3] = logEC50, GIP receptor, Table 1, log value, cAMP, COS-7
[4] = logEC50, GLP-2 receptor, Table 1

| Emax at 10 µM (human GIP receptor) [%] | Emax at 10 µM (human GLP-2 receptor) [%] | fold (fold change of native GIP), GIP receptor (human GIP receptor; Table 1) [fold] | fold (fold change of native GLP-2), GLP-2 receptor (human GLP-2 receptor; Table 1) [fold] | Molecule | further results |
| --- | --- | --- | --- | --- | --- |
| 115 | 82 |  |  | CCCCCCCCCCCCCCCC(=O)N[C@@H](Cc1c[nH]cn1)C(=O)N[C@@H](C)C(=O)N[C@@H](CC(=O)O)C(=O)NCC(=O)N[C@H](C(=O)N[C@@H](Cc1ccccc1)C(=O)N[C@H](C(=O)N[C@@H](CO)C(=O)N[C@@H](CC(=O)O)C(=O)N[C@@H](Cc1ccc(O)cc1)C(=O)N[C@@H](CO)C(=O)N[C@H](C(=O)N[C@H](C(=O)N[C@@H](CC(C)C)C(=O)N[C@@H](CC(=O)O)C(=O)N[C@@H](CC(N)=O)C(=O)N[C@@H](CC(C)C)C(=O)N[C@@H](C)C(=O)N[C@@H](C)C(=O)N[C@@H](CCCNC(=N)N)C(=O)N[C@@H](CC(=O)O)C(=O)N[C@@H](Cc1ccccc1)C(=O)N[C@H](C(=O)N[C@@H](CC(N)=O)C(=O)N[C@@H](Cc1c[nH]c2ccccc12)C(=O)N[C@@H](CC(C)C)C(=O)N[C@H](C(=O)N[C@@H](CCC(N)=O)C(=O)N[C@H](C(=O)N[C@@H](CCCCN)C(=O)N[C@H](C(=O)N[C@H](C(=O)N[C@@H](CCCCN)C(=O)O)[C@@H](C)O)[C@@H](C)CC)[C@@H](C)O)[C@@H](C)CC)[C@@H](C)CC)[C@@H](C)CC)[C@@H](C)O)[C@@H](C)CC)[C@@H](C)O [Co-agonist 29] | EC50 (human GIP receptor; EC50(nM), GIP receptor, Table 2, cAMP, COS-7): 1.82 nM; EC50 (human GIP receptor; [1]): 1.82 nM; EC50 (human GLP-2 receptor; [2]): 17.4 nM |
| 100 | 94 |  |  | HADGTFISDYSTILDNLAARDFINWLIQTKGKKNDWKHNITQ [Co-agonist 34] | EC50 (human GLP-2 receptor; [2]): 1.15 nM |
| 91 | 91 |  |  | CCCCCCCCCCCCCCCC(=O)NCCCC[C@H](NC(=O)[C@@H](NC(=O)[C@H](CCC(N)=O)NC(=O)[C@@H](NC(=O)[C@H](CC(C)C)NC(=O)[C@H](Cc1c[nH]c2ccccc12)NC(=O)[C@H](CC(N)=O)NC(=O)[C@@H](NC(=O)[C@H](Cc1ccccc1)NC(=O)[C@H](CC(=O)O)NC(=O)[C@H](CCCNC(=N)N)NC(=O)[C@H](C)NC(=O)[C@H](C)NC(=O)[C@H](CC(C)C)NC(=O)[C@H](CC(N)=O)NC(=O)[C@H](CC(=O)O)NC(=O)[C@H](CC(C)C)NC(=O)[C@@H](NC(=O)[C@@H](NC(=O)[C@H](CO)NC(=O)[C@H](Cc1ccc(O)cc1)NC(=O)[C@H](CC(=O)O)NC(=O)[C@H](CO)NC(=O)[C@@H](NC(=O)[C@H](Cc1ccccc1)NC(=O)[C@@H](NC(=O)CNC(=O)[C@H](CC(=O)O)NC(=O)[C@H](C)NC(=O)[C@@H](N)Cc1c[nH]cn1)[C@@H](C)O)[C@@H](C)CC)[C@@H](C)O)[C@@H](C)CC)[C@@H](C)CC)[C@@H](C)CC)[C@@H](C)O)C(=O)N[C@H](C(=O)N[C@H](C(=O)N[C@@H](CCCCN)C(=O)O)[C@@H](C)O)[C@@H](C)CC [Co-agonist 31] | fold (fold change of native GIP), GIP receptor (human GIP receptor; Table 2): 19 fold; fold (fold change of native GLP-2), GLP-2 receptor (human GLP-2 receptor; Table 2): 89 fold |

More lines, now with the values behind:

| Molecule | Emax at 10 µM (human GIP receptor) [%] | Emax at 10 µM (human GLP-2 receptor) [%] | fold (fold change of native GIP), GIP receptor (human GIP receptor; Table 1) [fold] | fold (fold change of native GLP-2), GLP-2 receptor (human GLP-2 receptor; Table 1) [fold] | further results |
| --- | --- | --- | --- | --- | --- |
| CC[C@H](C)[C@H](NC(=O)[C@H](Cc1ccccc1)NC(=O)[C@H](CC(=O)O)NC(=O)[C@H](CCCNC(=N)N)NC(=O)[C@H](C)NC(=O)[C@H](C)NC(=O)[C@H](CC(C)C)NC(=O)[C@H](CC(N)=O)NC(=O)[C@H](CC(=O)O)NC(=O)[C@H](CC(C)C)NC(=O)[C@@H](NC(=O)[C@@H](NC(=O)[C@H](CO)NC(=O)[C@H](Cc1ccc(O)cc1)NC(=O)[C@H](CC(=O)O)NC(=O)[C@H](CO)NC(=O)[C@@H](NC(=O)[C@H](Cc1ccccc1)NC(=O)[C@@H](NC(=O)CNC(=O)[C@H](CC(=O)O)NC(=O)[C@H](C)NC(=O)[C@@H](N)Cc1c[nH]cn1)[C@@H](C)O)[C@@H](C)CC)[C@@H](C)O)[C@@H](C)CC)C(=O)N[C@@H](CC(N)=O)C(=O)N[C@@H](Cc1c[nH]c2ccccc12)C(=O)N[C@@H](CC(C)C)C(=O)N[C@H](C(=O)N[C@@H](CCC(N)=O)C(=O)N[C@H](C(=O)N[C@@H](CCCCN)C(=O)N[C@H](C(=O)N[C@H](C(=O)N[C@@H](CCCCN)C(=O)O)[C@@H](C)O)[C@@H](C)CC)[C@@H](C)O)[C@@H](C)CC [Co-agonist 18] | 89 | 94 | 7.4 | 4.4 | potency (and efficacy) on the GIP receptor compared with native GIP, in words (human GIP receptor; Table 1): almost the same potency and efficacy; potency and efficacy on the GLP-2R compared with native GLP-2, in words (human GLP-2 receptor; Table 1): almost the same potency and efficacy |
| HAEGTFISDYSTILDNLAARDFINWLIQTKITDNDWKHNITQ [Co-agonist 2] |  |  | 135 | 121 | EC50 (human GIP receptor): 12 nM; Emax at 1 µM (human GIP receptor; COS-7, read-out: Emax, GIP receptor): 100%; Emax at 1 µM (human GLP-2 receptor; COS-7, read-out: Emax, GLP-2 receptor): 93% |
| HGDGTFISDYSTILDNLAARDFINWLIQTKITD [Co-agonist 11] | 95 | 87 | 36 | 20 | EC50 (human GIP receptor; [3]): 3.16 nM; EC50 (human GLP-2 receptor; [4]): 24 nM |
| HAEGTFSDEYSTILDNLAARDFINWLIQTKITD [Co-agonist 5] | 75 | 91 | 5124 | 5.2 | EC50 (human GLP-2 receptor; EC50(nM), GLP-2 receptor, Table 1): 6.2 nM |
| HADGTFISEYSTILDNLAARDFINWLIQTKITD [Co-agonist 15] | 92 | 104 | 36 | 5.6 | EC50 (human GIP receptor; [3]): 3.16 nM |
| HVDGTFISDYSTILDNLAARDFINWLIQTKITD [Co-agonist 12] | 96 | 81 | 12 | 21 | EC50 (human GIP receptor; [3]): 1.1 nM; EC50 (human GLP-2 receptor; [4]): 25.1 nM |
| CC[C@H](C)[C@H](NC(=O)[C@H](Cc1ccccc1)NC(=O)[C@H](CC(=O)O)NC(=O)[C@H](CCCCN)NC(=O)[C@H](C)NC(=O)[C@H](C)NC(=O)[C@H](CC(C)C)NC(=O)[C@H](CC(N)=O)NC(=O)[C@H](CC(=O)O)NC(=O)[C@H](CC(C)C)NC(=O)[C@@H](NC(=O)[C@@H](NC(=O)[C@H](CO)NC(=O)[C@H](Cc1ccc(O)cc1)NC(=O)[C@H](CC(=O)O)NC(=O)[C@H](CO)NC(=O)[C@@H](NC(=O)[C@H](Cc1ccccc1)NC(=O)[C@@H](NC(=O)CNC(=O)[C@H](CC(=O)O)NC(=O)[C@H](C)NC(=O)[C@@H](N)Cc1c[nH]cn1)[C@@H](C)O)[C@@H](C)CC)[C@@H](C)O)[C@@H](C)CC)C(=O)N[C@@H](CC(N)=O)C(=O)N[C@@H](Cc1c[nH]c2ccccc12)C(=O)N[C@@H](CC(C)C)C(=O)N[C@H](C(=O)N[C@@H](CCC(N)=O)C(=O)N[C@H](C(=O)N[C@@H](CCCCN)C(=O)N[C@H](C(=O)N[C@H](C(=O)N[C@@H](CCCCN)C(=O)O)[C@@H](C)O)[C@@H](C)CC)[C@@H](C)O)[C@@H](C)CC [Co-agonist 28] | 100 | 112 |  |  | EC50 (human GIP receptor; [1]): 0.2 nM |
| HADGTFISDYSTIKDNLAARDFINWLIQTKITK [Co-agonist 25] | 92 | 92 |  |  | fold (fold change of native GIP), GIP receptor (human GIP receptor; Table 2): 4.9 fold; fold (fold change of native GLP-2), GLP-2 receptor (human GLP-2 receptor; Table 2): 2.9 fold; EC50 (human GLP-2 receptor; [2]): 3.47 nM |
